# Source: patent US11319299B2, “Substituted carboxamides as inhibitors of WDR5 protein-protein binding” (PROPELLON THERAPEUTICS INC., priority 2016, dated 2022)
# Target: WDR5 (Homo sapiens (Human), UniProt P61964)
# Test: Surface Plasmon Resonance (SPR) assay, KD and residence time
# Type: binding
# Details: SPR, Table 2; read-out: WDR5 binding affinity (KD)
row,Kd,SMILES
1,294 nM,"CC(=O)Nc1cc(C(F)(F)F)c(C(=O)Nc2cc(-c3cnc(N4CCOCC4)nc3)c(F)cc2N2C[C@@H](C)N(C)[C@@H](C)C2)cn1 [Example 27, 6-acetamido-N-[4-fluoro-5-(2-morpholin-4-ylpyrimidin-5-yl)-2-[(3R,5S)-3,4,5-trimethylpiperazin-1-yl]phenyl]-4-(trifluoromethyl)pyridine-3-carboxamide]"

# Same assay, conditions: surface plasmon resonance (SPR) assay; read-out: WDR5 binding affinity (KD)
row,Kd,SMILES
1,3.86 nM,"C[C@@H]1CN(c2cc(F)c(-c3cnc(N4CCCC4)nc3)cc2NC(=O)c2cn(C)c(=O)cc2C(F)(F)F)C[C@H](C)N1C [Example 210, N-[4-fluoro-5-(2-pyrrolidin-1-ylpyrimidin-5-yl)-2-[(3R,5S)-3,4,5-trimethylpiperazin-1-yl]phenyl]-1-methyl-6-oxo-4-(trifluoromethyl)pyridine-3-carboxamide]"
2,0.551 nM,"C[C@@H]1CN(c2ncc(-c3cc(NC(=O)c4c[nH]c(=O)cc4C(F)(F)F)c(N4CCN(C)[C@@H](C)C4)cc3F)cn2)CCO1 [Example 340, N-[4-fluoro-2-[(3S)-3,4-dimethylpiperazin-1-yl]-5-[2-[(2R)-2-methylmorpholin-4-yl]pyrimidin-5-yl]phenyl]-6-oxo-4-(trifluoromethyl)-1H-pyridine-3-carboxamide]"
3,592 nM,"CC1CN(c2cc(F)c(-c3cnc(N4CCOCC4)nc3)cc2NC(=O)c2cc[nH]n2)CCN1C (stereo in doubt) [Example 193, N-[4-fluoro-5-(2-morpholin-4-ylpyrimidin-5-yl)-2-[(3R)-3,4-dimethylpiperazin-1-yl]phenyl]-1H-pyrazole-3-carboxamide]"
4,1.3 nM,"C[C@@H]1CN(c2cc(F)c(C3=CCCN(c4ncc(F)cn4)C3)cc2NC(=O)c2c[nH]c(=O)cc2C(F)(F)F)C[C@H](C)N1C [Example 377, N-[4-fluoro-5-[1-(5-fluoropyrimidin-2-yl)-3,6-dihydro-2H-pyridin-5-yl]-2-[(3R,5S)-3,4,5-trimethylpiperazin-1-yl]phenyl]-6-oxo-4-(trifluoromethyl)-1H-pyridine-3-carboxamide]"
5,11.1 nM,"C[C@@H]1CN(c2cc(F)c(-c3cnc(OCc4ccccc4)c(C#N)c3)cc2NC(=O)c2c[nH]c(=O)cc2C(F)(F)F)C[C@H](C)N1C [Example 99, N-[5-(5-cyano-6-phenylmethoxypyridin-3-yl)-4-fluoro-2-[(3R,5S)-3,4,5-trimethylpiperazin-1-yl]phenyl]-6-oxo-4-(trifluoromethyl)-1H-pyridine-3-carboxamide]"
6,5.87 nM,"C[C@@H]1CN(c2cc(F)c(-c3cnc(N4CCOCC4)nc3)cc2NC(=O)c2ccc(F)cc2C(F)(F)F)C[C@H](C)N1 [Example 364, 4-fluoro-N-[4-fluoro-5-(2-morpholin-4-ylpyrimidin-5-yl)-2-[(3R,5S)-3,5-dimethylpiperazin-1-yl]phenyl]-2-(trifluoromethyl)benzamide]"
7,294 nM,"CC(=O)Nc1cc(C(F)(F)F)c(C(=O)Nc2cc(-c3cnc(N4CCOCC4)nc3)c(F)cc2N2C[C@@H](C)N(C)[C@@H](C)C2)cn1 [Example 27, 6-acetamido-N-[4-fluoro-5-(2-morpholin-4-ylpyrimidin-5-yl)-2-[(3R,5S)-3,4,5-trimethylpiperazin-1-yl]phenyl]-4-(trifluoromethyl)pyridine-3-carboxamide]"
8,0.788 nM,"C[C@@H]1CN(c2ncc(-c3cc(NC(=O)c4c[nH]c(=O)cc4C(F)(F)F)c(N4C[C@@H](C)N(C)[C@@H](C)C4)cc3F)cn2)CCO1 [Example 388, N-[4-fluoro-5-[2-[(2R)-2-methylmorpholin-4-yl]pyrimidin-5-yl]-2-[(3R,5S)-3,4,5-trimethylpiperazin-1-yl]phenyl]-6-oxo-4-(trifluoromethyl)-1H-pyridine-3-carboxamide]"
9,0.225 nM,"C[C@@H]1CN(c2cc(F)c(-c3ccc4c(c3)OCCCO4)cc2NC(=O)c2c[nH]c(=O)cc2C(F)(F)F)C[C@H](C)N1C [Example 69, N-[5-(3,4-dihydro-2H-1,5-benzodioxepin-7-yl)-4-fluoro-2-[(3R,5S)-3,4,5-trimethylpiperazin-1-yl]phenyl]-6-oxo-4-(trifluoromethyl)-1H-pyridine-3-carboxamide]"
10,1.49 nM,"C[C@@H]1CN(c2ncc(-c3cc(NC(=O)c4c[nH]c(=O)cc4C(F)F)c(N4C[C@@H](C)N(C)[C@@H](C)C4)cc3F)cn2)CCO1 [Example 386, 4-(difluoromethyl)-N-[4-fluoro-5-[2-[(2R)-2-methylmorpholin-4-yl]pyrimidin-5-yl]-2-[(3R,5S)-3,4,5-trimethylpiperazin-1-yl]phenyl]-6-oxo-1H-pyridine-3-carboxamide]"
11,> 200 nM,"C[C@@H]1CN(c2cc(F)c(-c3cnc(N4CCOCC4)nc3)cc2NC(=O)c2cocn2)C[C@H](C)N1C [Example 127, N-[4-fluoro-5-(2-morpholin-4-ylpyrimidin-5-yl)-2-[(3R,5S)-3,4,5-trimethylpiperazin-1-yl]phenyl]-1,3-oxazole-4-carboxamide]"
12,117 nM,"C[C@H]1CN(c2cc(F)c(-c3cnc(N4CCN(C)CC4)nc3)cc2NC(=O)c2ccc(F)cc2C(F)(F)F)C[C@H](C)N1C (racemic) [Example 382, 4-fluoro-N-[4-fluoro-5-[2-(4-methylpiperazin-1-yl)pyrimidin-5-yl]-2-[(3R,5R)-3,4,5-trimethylpiperazin-1-yl]phenyl]-2-(trifluoromethyl)benzamide]"

# Same assay, conditions: surface plasmon resonance (SPR); read-out: WDR5 binding affinity (KD)
row,Kd,SMILES
1,5.3 nM,"CC1CN(c2cc(F)c(-c3ccc(F)c(C(N)=O)c3)cc2NC(=O)c2ccc(F)cc2C(F)(F)F)CCN1C (stereo in doubt) [Example 554, 2-fluoro-5-[2-fluoro-5-[[4-fluoro-2-(trifluoromethyl)benzoyl]amino]-4-[(3R)-3,4-dimethylpiperazin-1-yl]phenyl]benzamide]"
2,2.21 nM,"C[C@@H]1CN(c2cc(F)c(-c3nc(C(=O)N(C)C4CCCCC4)cs3)cc2NC(=O)c2c[nH]c(=O)cc2C(F)(F)F)C[C@H](C)N1C [Example 485, N-cyclohexyl-2-[2-fluoro-5-[[6-oxo-4-(trifluoromethyl)-1H-pyridine-3-carbonyl]amino]-4-[(3R,5S)-3,4,5-trimethylpiperazin-1-yl]phenyl]-N-methyl-1,3-thiazole-4-carboxamide]"
3,2.5 nM,"C[C@@H]1CN(c2cc(F)c(-c3ccc(F)c(C(N)=O)c3)cc2NC(=O)c2c[nH]c(=O)cc2C(F)(F)F)C[C@H](C)N1C [Example 550, N-[5-(3-carbamoyl-4-fluorophenyl)-4-fluoro-2-[(3R,5S)-3,4,5-trimethylpiperazin-1-yl]phenyl]-6-oxo-4-(trifluoromethyl)-1H-pyridine-3-carboxamide]"
4,10.6 nM,"C[C@@H]1CN(c2cc(F)c(-c3csc(CN4CCOCC4)n3)cc2NC(=O)c2cn(C)c(=O)cc2C(F)F)C[C@H](C)N1C [Example 749, 4-(difluoromethyl)-N-[4-fluoro-5-[2-(morpholin-4-ylmethyl)-1,3-thiazol-4-yl]-2-[(3R,5S)-3,4,5-trimethylpiperazin-1-yl]phenyl]-1-methyl-6-oxopyridine-3-carboxamide]"
5,1.25 nM,"C[C@@H]1CN(c2cc(F)c(-c3cnc(N4CCOC[C@H]4C)nc3)cc2NC(=O)c2c[nH]c(=O)cc2C(F)F)CCN1C (stereo in doubt) [Example 628, 4-(difluoromethyl)-N-[4-fluoro-2-[(3R)-3,4-dimethylpiperazin-1-yl]-5-[2-[(3R)-3-methylmorpholin-4-yl]pyrimidin-5-yl]phenyl]-6-oxo-1H-pyridine-3-carboxamide]"
6,18.3 nM,"CC1CN(c2cc(F)c(-c3ccc(C(N)=O)c(F)c3F)cc2NC(=O)c2ccc(F)cc2C(F)(F)F)CCN1C (stereo in doubt) [Example 668, 2,3-difluoro-4-[2-fluoro-5-[[4-fluoro-2-(trifluoromethyl)benzoyl]amino]-4-[(3R)-3,4-dimethylpiperazin-1-yl]phenyl]benzamide]"
7,5.53 nM,"C[C@@H]1CN(c2ccc(-c3cc(NC(=O)c4cn(C)c(=O)cc4C(F)F)c(N4C[C@@H](C)N(C)[C@@H](C)C4)cc3F)cn2)CCO1 [Example 542, 4-(difluoromethyl)-N-[4-fluoro-5-[6-[(2R)-2-methylmorpholin-4-yl]pyridin-3-yl]-2-[(3R,5S)-3,4,5-trimethylpiperazin-1-yl]phenyl]-1-methyl-6-oxopyridine-3-carboxamide]"
8,1.93 nM,"C[C@@H]1CN(c2cc(F)c(-c3cc(F)c(C(N)=O)c(F)c3)cc2NC(=O)c2c[nH]c(=O)cc2C(F)F)C[C@H](C)N1C [Example 659, N-[5-(4-carbamoyl-3,5-difluorophenyl)-4-fluoro-2-[(3R,5S)-3,4,5-trimethylpiperazin-1-yl]phenyl]-4-(difluoromethyl)-6-oxo-1H-pyridine-3-carboxamide]"
9,0.922 nM,"CC1CN(c2cc(F)c(-c3cnc(N4CCC(C)(O)CC4)nc3)cc2NC(=O)c2ccc(F)cc2C(F)(F)F)CCN1C (stereo in doubt) [Example 613, 4-fluoro-N-[4-fluoro-5-[2-(4-hydroxy-4-methylpiperidin-1-yl)pyrimidin-5-yl]-2-[(3R)-3,4-dimethylpiperazin-1-yl]phenyl]-2-(trifluoromethyl)benzamide]"
10,0.475 nM,"CC(C)OC(=O)N1CC=C(c2cc(NC(=O)c3c[nH]c(=O)cc3C(F)(F)F)c(N3C[C@@H](C)N(C)[C@@H](C)C3)cc2F)CC1 [Example 602, propan-2-yl 4-[2-fluoro-5-[[6-oxo-4-(trifluoromethyl)-1H-pyridine-3-carbonyl]amino]-4-[(3R,5S)-3,4,5-trimethylpiperazin-1-yl]phenyl]-3,6-dihydro-2H-pyridine-1-carboxylate]"
11,1.36 nM,"C[C@@H]1CN(c2cc(F)c(-c3cnc(N4CCOCC4)nc3)cc2NC(=O)c2ccc(F)cc2C(F)F)C[C@H](C)N1C [Example 722, 2-(difluoromethyl)-4-fluoro-N-[4-fluoro-5-(2-morpholin-4-ylpyrimidin-5-yl)-2-[(3R,5S)-3,4,5-trimethylpiperazin-1-yl]phenyl]benzamide]"
12,1.97 nM,"CCOC(=O)N1CCC=C(c2cc(NC(=O)c3c[nH]c(=O)cc3C(F)F)c(N3C[C@@H](C)N(C)[C@@H](C)C3)cc2F)C1 [Example 648, Ethyl 5-[5-[[4-(difluoromethyl)-6-oxo-1H-pyridine-3-carbonyl]amino]-2-fluoro-4-[(3R,5S)-3,4,5-trimethylpiperazin-1-yl]phenyl]-3,6-dihydro-2H-pyridine-1-carboxylate]"
13,1.31 nM,"CC1CN(c2cc(F)c(-c3ccnc(N4CCOCC4)n3)cc2NC(=O)c2c[nH]c(=O)cc2C(F)F)CCN1C (stereo in doubt) [Example 720, 4-(difluoromethyl)-N-[4-fluoro-5-(2-morpholin-4-ylpyrimidin-4-yl)-2-[(3R)-3,4-dimethylpiperazin-1-yl]phenyl]-6-oxo-1H-pyridine-3-carboxamide]"
